Laboratory results: PubChem BioAssay AID1259407 (Chemical Carcinogenesis Research Information System (CCRIS), 2018)
Active and inactive are the calls of the source. How the calls were made is not given here.

System: CCRIS mutagenicity, Ames/micronucleus/aberration tests
Test: CCRIS mutagenicity studies
[1] = Test System: AMES SALMONELLA TYPHIMURIUM, Strain/Indicator: TA98, Metabolic Activation: NONE, Method: PREINCUBATION
[2] = Test System: AMES SALMONELLA TYPHIMURIUM, Strain/Indicator: TA100, Metabolic Activation: NONE, Method: PREINCUBATION
[3] = Test System: AMES SALMONELLA TYPHIMURIUM, Strain/Indicator: TA1535, Metabolic Activation: NONE, Method: PREINCUBATION
[4] = Test System: AMES SALMONELLA TYPHIMURIUM, Strain/Indicator: TA1537, Metabolic Activation: NONE, Method: PREINCUBATION

## CCCBr
End Point: In vitro micronucleus, Test System: Chinese Hamster Ovary (CHO-WBL) cells, Metabolic Activation: None
  mutagenic call: inactive; negative
[1]
  mutagenic call: inactive; negative
Test System: AMES SALMONELLA TYPHIMURIUM, Strain/Indicator: TA98, Metabolic Activation: RAT LIVER S-9, PHENOBARBITAL AND BETA-NAPHTHOFLAVONE, Method: PREINCUBATION
  mutagenic call: inactive; negative
[2]
  mutagenic call: inactive; negative
Test System: AMES SALMONELLA TYPHIMURIUM, Strain/Indicator: TA100, Metabolic Activation: RAT LIVER S-9, PHENOBARBITAL AND BETA-NAPHTHOFLAVONE, Method: PREINCUBATION
  mutagenic call: inactive; negative
Test System: AMES SALMONELLA TYPHIMURIUM, Strain/Indicator: TA102, Metabolic Activation: NONE, Method: PREINCUBATION
  mutagenic call: inactive; negative
Test System: AMES SALMONELLA TYPHIMURIUM, Strain/Indicator: TA102, Metabolic Activation: RAT LIVER S-9, PHENOBARBITAL AND BETA-NAPHTHOFLAVONE, Method: PREINCUBATION
  mutagenic call: inactive; negative
Test System: AMES SALMONELLA TYPHIMURIUM, Strain/Indicator: TA104, Metabolic Activation: NONE, Method: PREINCUBATION
  mutagenic call: inactive; negative
Test System: AMES SALMONELLA TYPHIMURIUM, Strain/Indicator: TA104, Metabolic Activation: RAT LIVER S-9, PHENOBARBITAL AND BETA-NAPHTHOFLAVONE, Method: PREINCUBATION
  mutagenic call: inactive; negative
[3]
  mutagenic call: inactive; negative
Test System: AMES SALMONELLA TYPHIMURIUM, Strain/Indicator: TA1535, Metabolic Activation: RAT LIVER S-9, PHENOBARBITAL AND BETA-NAPHTHOFLAVONE, Method: PREINCUBATION
  mutagenic call: inactive; negative
[4]
  mutagenic call: inactive; negative
Test System: AMES SALMONELLA TYPHIMURIUM, Strain/Indicator: TA1537, Metabolic Activation: RAT LIVER S-9, PHENOBARBITAL AND BETA-NAPHTHOFLAVONE, Method: PREINCUBATION
  mutagenic call: inactive; negative
Test System: E.COLI, Strain/Indicator: WP2UVRA/PKM101, Metabolic Activation: NONE, Method: PREINCUBATION
  mutagenic call: inactive; negative
Test System: E.COLI, Strain/Indicator: WP2UVRA/PKM101, Metabolic Activation: RAT LIVER S-9, PHENOBARBITAL AND BETA-NAPHTHOFLAVONE, Method: PREINCUBATION
  mutagenic call: inactive; negative
Test System: E.COLI, Strain/Indicator: WP2UVRA, Metabolic Activation: NONE, Method: PREINCUBATION
  mutagenic call: inactive; negative
Test System: E.COLI, Strain/Indicator: WP2UVRA, Metabolic Activation: RAT LIVER S-9, PHENOBARBITAL AND BETA-NAPHTHOFLAVONE, Method: PREINCUBATION
  mutagenic call: inactive; negative

## O=C(OCC(COC(=O)c1ccccc1)(COC(=O)c1ccccc1)COC(=O)c1ccccc1)c1ccccc1
Test System: AMES SALMONELLA TYPHIMURIUM, Strain/Indicator: TA97, Metabolic Activation: HAMSTER, LIVER, S-9, AROCLOR 1254 (10 OR 30%), Method: PREINCUBATION
  mutagenic call: inactive; negative
Test System: AMES SALMONELLA TYPHIMURIUM, Strain/Indicator: TA97, Metabolic Activation: NONE, Method: PREINCUBATION
  mutagenic call: inactive; negative
Test System: AMES SALMONELLA TYPHIMURIUM, Strain/Indicator: TA97, Metabolic Activation: RAT, LIVER, S-9, AROCLOR 1254 (10 OR 30%), Method: PREINCUBATION
  mutagenic call: inactive; negative
Test System: AMES SALMONELLA TYPHIMURIUM, Strain/Indicator: TA98, Metabolic Activation: HAMSTER, LIVER, S-9, AROCLOR 1254 (10 OR 30%), Method: PREINCUBATION
  mutagenic call: inactive; negative
[1]
  mutagenic call: inactive; negative
Test System: AMES SALMONELLA TYPHIMURIUM, Strain/Indicator: TA98, Metabolic Activation: RAT, LIVER, S-9, AROCLOR 1254 (10 OR 30%), Method: PREINCUBATION
  mutagenic call: inactive; negative
Test System: AMES SALMONELLA TYPHIMURIUM, Strain/Indicator: TA100, Metabolic Activation: HAMSTER, LIVER, S-9, AROCLOR 1254 (10 OR 30%), Method: PREINCUBATION
  mutagenic call: inactive; negative
[2]
  mutagenic call: inactive; negative
Test System: AMES SALMONELLA TYPHIMURIUM, Strain/Indicator: TA100, Metabolic Activation: RAT, LIVER, S-9, AROCLOR 1254 (10 OR 30%), Method: PREINCUBATION
  mutagenic call: inactive; negative
Test System: AMES SALMONELLA TYPHIMURIUM, Strain/Indicator: TA1535, Metabolic Activation: HAMSTER, LIVER, S-9, AROCLOR 1254 (10 OR 30%), Method: PREINCUBATION
  mutagenic call: inactive; negative
[3]
  mutagenic call: inactive; negative
Test System: AMES SALMONELLA TYPHIMURIUM, Strain/Indicator: TA1535, Metabolic Activation: RAT, LIVER, S-9, AROCLOR 1254 (10 OR 30%), Method: PREINCUBATION
  mutagenic call: inactive; negative
Test System: AMES SALMONELLA TYPHIMURIUM, Strain/Indicator: TA1537, Metabolic Activation: HAMSTER, LIVER, S-9, AROCLOR 1254 (30%), Method: PREINCUBATION
  mutagenic call: inactive; negative
[4]
  mutagenic call: inactive; negative
Test System: AMES SALMONELLA TYPHIMURIUM, Strain/Indicator: TA1537, Metabolic Activation: RAT, LIVER, S-9, AROCLOR 1254 (30%), Method: PREINCUBATION
  mutagenic call: inactive; negative

## O=NN1CN(N=O)CN(N=O)C1
Test System: Ames Salmonella typhimurium, Strain/Indicator: TA97a, Metabolic Activation: None, Method: Preincubation
  mutagenic call: inactive; negative
Test System: Ames Salmonella typhimurium, Strain/Indicator: TA97a, Metabolic Activation: Rat, Liver, S-9, Aroclor 1254, Method: Preincubation
  mutagenic call: active; positive
Test System: Ames Salmonella typhimurium, Strain/Indicator: TA98, Metabolic Activation: Rat, Liver, S-9, Aroclor 1254, Method: Preincubation
  mutagenic call: inactive; negative
Test System: Ames Salmonella typhimurium, Strain/Indicator: TA100, Metabolic Activation: Rat, Liver, S-9, Aroclor 1254, Method: Preincubation
  mutagenic call: inactive; negative
Test System: Ames Salmonella typhimurium, Strain/Indicator: TA102, Metabolic Activation: Rat, Liver, S-9, Aroclor 1254, Method: Preincubation
  mutagenic call: active; positive

## Oc1ccc2c(c1)[nH]c1ccccc12
Test System: CHINESE HAMSTER OVARY, Strain/Indicator: CHO-K1-BH4 (HGPRT)/6-THIOGUANINE, Metabolic Activation: RAT, LIVER, S-9, AROCLOR (4%)
  mutagenic call: active; positive

## O=[N+]([O-])c1ccc2c(ccc3cc4c(ccc5ccccc54)cc32)c1
Test System: AMES SALMONELLA TYPHIMURIUM, Strain/Indicator: TA98(1,8-DNP6), Metabolic Activation: NONE
  mutagenic call: active; positive
Test System: AMES SALMONELLA TYPHIMURIUM, Strain/Indicator: TA98(1,8-DNP6), Metabolic Activation: RAT, LIVER, S-9, AROCLOR 1254
  mutagenic call: active; positive
Test System: AMES SALMONELLA TYPHIMURIUM, Strain/Indicator: TA98(NR), Metabolic Activation: NONE
  mutagenic call: active; positive
Test System: AMES SALMONELLA TYPHIMURIUM, Strain/Indicator: TA98(NR), Metabolic Activation: RAT, LIVER, S-9, AROCLOR 1254
  mutagenic call: active; positive
Test System: AMES SALMONELLA TYPHIMURIUM, Strain/Indicator: TA98, Metabolic Activation: NONE
  mutagenic call: active; positive
Test System: AMES SALMONELLA TYPHIMURIUM, Strain/Indicator: TA98, Metabolic Activation: RAT, LIVER, S-9, AROCLOR 1254
  mutagenic call: active; positive
Test System: AMES SALMONELLA TYPHIMURIUM, Strain/Indicator: TA100(NR), Metabolic Activation: NONE
  mutagenic call: inactive; negative
Test System: AMES SALMONELLA TYPHIMURIUM, Strain/Indicator: TA100(NR), Metabolic Activation: RAT, LIVER, S-9, AROCLOR 1254
  mutagenic call: active; positive
Test System: AMES SALMONELLA TYPHIMURIUM, Strain/Indicator: TA100, Metabolic Activation: NONE
  mutagenic call: inactive; negative
Test System: AMES SALMONELLA TYPHIMURIUM, Strain/Indicator: TA100, Metabolic Activation: RAT, LIVER, S-9, AROCLOR 1254
  mutagenic call: active; positive
Test System: AMES SALMONELLA TYPHIMURIUM, Strain/Indicator: TA104, Metabolic Activation: NONE
  mutagenic call: inactive; negative
Test System: AMES SALMONELLA TYPHIMURIUM, Strain/Indicator: TA104, Metabolic Activation: RAT, LIVER, S-9, AROCLOR 1254
  mutagenic call: active; positive

## Nc1nc(=S)c2[nH]cnc2[nH]1
End Point: IN VITRO CHROMOSOMAL ABERRATIONS, Test System: HUMAN HCT116/3-6 CELLS, Metabolic Activation: NONE
  mutagenic call: active; positive
End Point: IN VITRO CHROMOSOMAL ABERRATIONS, Test System: HUMAN HCT116 CELLS, Metabolic Activation: NONE
  mutagenic call: active; positive
End Point: IN VITRO CHROMOSOMAL ABERRATIONS, Test System: HUMAN MT1 CELLS, Metabolic Activation: NONE
  mutagenic call: active; positive
End Point: IN VITRO CHROMOSOMAL ABERRATIONS, Test System: HUMAN TK6 CELLS, Metabolic Activation: NONE
  mutagenic call: active; positive
